Laboratory results from ChEMBL document CHEMBL1201862, “PubChem BioAssay data set” (2004).
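Compound exposure: 48 hours, 5 concentrations, 96-well plates. Here, GI50 denotes the concentration required for 50% inhibition of growth.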 Activity calls are given as the source filed them. Cut-off read from the data, not from the text of the source: active = GI50 up to about 1.1 µM and inactive = higher.

What was measured:
Assay in all cases: DTP human tumour cell line panel, 48 h
MDA-N = test system: MDA-N
T47D = test system: T47D
PC-3 = test system: PC-3
MDA-MB-435 = test system: MDA-MB-435
MDA-MB-231 = test system: MDA-MB-231
Hs-578T = test system: Hs-578T
DU-145 = test system: DU-145
RXF 631 = test system: RXF 631
BT-549 = test system: BT-549

| SMILES | GI50 (MDA-N) | GI50 (T47D) | GI50 (PC-3) | GI50 (MDA-MB-435) | GI50 (MDA-MB-231) | GI50 (Hs-578T) | GI50 (DU-145) | GI50 (RXF 631) | GI50 (BT-549) |
| --- | --- | --- | --- | --- | --- | --- | --- | --- | --- |
| COc1cc(N/N=C/C#N)cc(OC)c1OC | > 10 µM (inactive) | 4.65 µM (inactive) | > 10 µM (inactive) | > 10 µM (inactive) | > 10 µM (inactive) | > 10 µM (inactive) | > 10 µM (inactive) | – | – |
| O=C(Nc1cccc(C(F)(F)F)c1)C(=O)C(C(=O)c1ccc(Cl)c(Cl)c1)C1OC(=O)c2ccccc21 (stereo not given) | – | – | – | – | – | – | – | 39.3 µM (inactive) | – |
| COC1=CC(=O)c2ccccc2C1(C)C1=NC(C)(C)CO1 (stereo not given) | – | – | – | – | – | – | – | > 100 µM (inactive) | – |
| CCCCCC/C(CC(=O)CCC(=O)NCCc1ccccc1)=N\NC(=O)c1ccc2ccccc2c1O | – | – | – | – | – | – | – | 61.2 µM (inactive) | – |
| O=C(CCC(=O)Nc1ccccc1C(F)(F)F)N/N=C1\C(=N\NC(=O)CCC(=O)Nc2ccccc2C(F)(F)F)C(c2ccc3c(c2)OCO3)Oc2ccccc21 (stereo not given) | – | – | – | – | – | – | – | 14 µM (inactive) | – |
| COc1cc(Nc2nc3ccc(C(F)(F)F)cc3nc2C(=O)O)cc(OC)c1OC | 19.3 µM (inactive) | 26.8 µM (inactive) | 24.4 µM (inactive) | 24.3 µM (inactive) | 19.2 µM (inactive) | 16.9 µM (inactive) | 28.5 µM (inactive) | – | 19.2 µM (inactive) |
| C/C(=N\NC(=S)N1CCN(c2ccccn2)CC1)c1cccc(C)n1 | 3.14 µM (inactive) | 0.528 µM (active) | < 0.01 µM (active) | 3.61 µM (inactive) | < 0.01 µM (active) | 12.6 µM (inactive) | 2.85 µM (inactive) | – | 5.26 µM (inactive) |
| CCOC(=O)[C@H]1Nc2c(cccc2[N+](=O)[O-])C2c3ccccc3CC21 (stereo not given in full) | – | – | – | – | – | – | – | > 100 µM (inactive) | – |
| COc1ccc2c(c1)/C(=C/CCN(C)C)c1ccccc1S2 | 43.3 µM (inactive) | > 100 µM (inactive) | 75.9 µM (inactive) | 48 µM (inactive) | 59 µM (inactive) | 33.4 µM (inactive) | > 100 µM (inactive) | – | – |
| CS(=O)(=O)OCC1=C(COS(C)(=O)=O)C(=O)c2c(O)ccc(O)c2C1=O | – | – | – | – | – | – | – | > 100 µM (inactive) | – |
| CCCC(=O)Nc1cc(/C=C/C(=O)N2CC(CCl)c3c2cc(OCc2ccccc2)c2[nH]cc(C)c32)n(C)c1 (stereo not given) | 0.249 µM (active) | 0.225 µM (active) | 0.103 µM (active) | 0.251 µM (active) | 0.247 µM (active) | 0.14 µM (active) | 0.0194 µM (active) | – | 0.159 µM (active) |
| CC1(C)CCC2(C(=O)O)C(O)CC3(C)C(=CCC4C5(C)CCC(OC6OCC(O)C(O)C6OC6OCC(O)C(O)C6OC6OCC(O)C(OC7OC(CO)C(O)C(O)C7O)C6O)C(C)(C)C5CCC43C)C2C1 (stereo not given) | 20.8 µM (inactive) | 97.1 µM (inactive) | 44.6 µM (inactive) | 28.4 µM (inactive) | > 100 µM (inactive) | 28.1 µM (inactive) | > 100 µM (inactive) | – | 29.7 µM (inactive) |
| CCOC(=O)/C(=N/Nc1ccc(Cl)cc1)N1C(=S)N(C)N=C(C)C=C1S | – | 29.8 µM (inactive) | – | > 100 µM (inactive) | 29 µM (inactive) | 37.1 µM (inactive) | > 100 µM (inactive) | – | – |
| O=c1cc(N2CCCC2)[nH]c(=O)n1-c1cccc(C(F)(F)F)c1 | > 100 µM (inactive) | > 100 µM (inactive) | > 100 µM (inactive) | > 100 µM (inactive) | > 100 µM (inactive) | > 100 µM (inactive) | > 100 µM (inactive) | – | > 100 µM (inactive) |
| CC(C)NC(=O)OCc1c(COC(=O)NC(C)C)c(-c2cc[n+](COC(=O)Cc3ccccc3)cc2)n2c1CCC2 | > 100 µM (inactive) | > 100 µM (inactive) | > 100 µM (inactive) | > 100 µM (inactive) | > 100 µM (inactive) | > 100 µM (inactive) | > 100 µM (inactive) | – | > 100 µM (inactive) |
| CCCCCCCCCCC(C)CCCCCCC(=O)O (stereo not given) | – | – | – | – | – | – | – | > 100 µM (inactive) | – |
| COc1ccc(C23C(=O)c4ccccc4N2O[C@H]2C(=O)N(c4ccccc4)C(=O)[C@H]23)cc1 (stereo not given in full) | – | – | – | – | – | – | – | > 100 µM (inactive) | – |
